Data taken from patent publication US11427563B2, “Aryl cyclopropyl-amino-isoquinolinyl amide compounds” (Aerie Pharmaceuticals, Inc., priority 2018, dated 2022).

What was measured:
[1] = biological target: ROCK1 enzyme (Homo sapiens (Human), UniProt Q13464); assay: ROCK kinase inhibition assay (ROCK1); type: biochemical; conditions: Table 1
[2] = biological target: ROCK2 enzyme (Homo sapiens (Human), UniProt O75116); assay: ROCK kinase inhibition assay (ROCK2); type: biochemical; conditions: for IC50: Table 1
[3] = biological target: JAK3 enzyme (Homo sapiens (Human), UniProt P52333); assay: JAK kinase assay (JAK3); type: biochemical; conditions: for IC50: Table 1
[4] = biological target: IKKβ (Homo sapiens (Human), UniProt O14920); assay: IKKβ inhibition; type: biochemical; conditions: for IC50: Table 1
[5] = system: Porcine Trabecular Meshwork cells (PTM); assay: PTM-HTM assay (actin fiber length in PTM cells); type: cell-based; conditions: Sus scrofa; Table 2
Procedure: Porcine Trabecular Meshwork cells (PTM) were isolated from freshly obtained enucleated porcine eyes. Immortalized Human Trabecular Meshwork cells (TM-1) were obtained through a kind gift from Donna Peters in the Department of Ophthalmology and Visual Sciences at the University of Wisconsin. Cells were plated onto fibronectin coated glass-bottom 96-well plates and allowed to attach overnight. Media was removed and replaced with test compound in media with 1% fetal bovine serum and incubated for various times. After incubation, cells were formaldehyde fixed, triton solubilized, and stained. PTM cells were stained with Alexa Fluor®488 phalloidin (F-actin) and Hoechst 33342 (nuclei). TM-1 cells were stained with anti-paxillin followed by Alexa Fluor®488 goat-anti-mouse IgG (focal adhesions) and Hoechst 33342 (nuclei). All staining reagents were obtained through Invitrogen. Images were collected on an INCell 2200 imager with a 20× objective. The actin fiber length and total area of focal adhesions were analyzed using custom algorithms developed in the INCell Developer Toolbox, v1.9.3. Data collected were converted to percent of control (untreated cells). Curves were fit to data in GraphPad Prizm using sigmoidal dose-response and constraining top and bottom to 100% and 0%, respectively.

[6] = biological target: TYK2 (Homo sapiens (Human), UniProt P29597); assay: TYK2 inhibition; type: biochemical; conditions: Table 1
[7] = system: Stat5; assay: Stat5 assay; type: cell-based; conditions: Table 1
[8] = Table 2, Ki from IC50 by Cheng-Prusoff

JAK3 enzyme, sequence (P52333 whole entry, species assumed): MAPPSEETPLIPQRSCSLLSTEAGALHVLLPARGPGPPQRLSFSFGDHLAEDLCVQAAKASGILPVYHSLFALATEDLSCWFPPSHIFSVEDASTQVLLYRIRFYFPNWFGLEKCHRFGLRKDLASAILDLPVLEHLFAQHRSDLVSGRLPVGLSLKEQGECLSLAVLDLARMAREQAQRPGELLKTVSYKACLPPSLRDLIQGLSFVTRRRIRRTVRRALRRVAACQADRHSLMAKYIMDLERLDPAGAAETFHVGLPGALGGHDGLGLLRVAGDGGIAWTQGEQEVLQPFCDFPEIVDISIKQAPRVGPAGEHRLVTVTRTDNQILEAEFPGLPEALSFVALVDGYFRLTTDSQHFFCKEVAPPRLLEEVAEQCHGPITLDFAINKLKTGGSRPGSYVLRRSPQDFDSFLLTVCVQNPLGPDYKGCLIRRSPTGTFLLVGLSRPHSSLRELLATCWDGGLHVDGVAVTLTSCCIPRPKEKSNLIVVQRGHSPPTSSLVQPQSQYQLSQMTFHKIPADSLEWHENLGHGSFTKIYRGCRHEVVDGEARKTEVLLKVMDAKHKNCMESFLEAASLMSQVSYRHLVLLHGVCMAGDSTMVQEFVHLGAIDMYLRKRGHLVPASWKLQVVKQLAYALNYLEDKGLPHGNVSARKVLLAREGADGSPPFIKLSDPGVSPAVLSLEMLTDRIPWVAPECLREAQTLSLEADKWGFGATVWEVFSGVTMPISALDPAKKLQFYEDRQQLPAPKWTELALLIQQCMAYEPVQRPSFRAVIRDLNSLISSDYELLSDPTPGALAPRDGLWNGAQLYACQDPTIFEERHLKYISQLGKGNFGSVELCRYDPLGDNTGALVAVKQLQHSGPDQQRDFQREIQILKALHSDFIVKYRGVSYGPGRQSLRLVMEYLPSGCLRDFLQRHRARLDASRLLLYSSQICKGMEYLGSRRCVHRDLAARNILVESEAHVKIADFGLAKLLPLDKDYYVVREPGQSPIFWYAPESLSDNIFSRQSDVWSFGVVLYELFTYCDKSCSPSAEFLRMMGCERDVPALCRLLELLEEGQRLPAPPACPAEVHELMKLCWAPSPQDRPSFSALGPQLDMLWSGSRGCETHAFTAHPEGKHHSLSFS
ROCK1 enzyme, sequence (Q13464 whole entry, species assumed): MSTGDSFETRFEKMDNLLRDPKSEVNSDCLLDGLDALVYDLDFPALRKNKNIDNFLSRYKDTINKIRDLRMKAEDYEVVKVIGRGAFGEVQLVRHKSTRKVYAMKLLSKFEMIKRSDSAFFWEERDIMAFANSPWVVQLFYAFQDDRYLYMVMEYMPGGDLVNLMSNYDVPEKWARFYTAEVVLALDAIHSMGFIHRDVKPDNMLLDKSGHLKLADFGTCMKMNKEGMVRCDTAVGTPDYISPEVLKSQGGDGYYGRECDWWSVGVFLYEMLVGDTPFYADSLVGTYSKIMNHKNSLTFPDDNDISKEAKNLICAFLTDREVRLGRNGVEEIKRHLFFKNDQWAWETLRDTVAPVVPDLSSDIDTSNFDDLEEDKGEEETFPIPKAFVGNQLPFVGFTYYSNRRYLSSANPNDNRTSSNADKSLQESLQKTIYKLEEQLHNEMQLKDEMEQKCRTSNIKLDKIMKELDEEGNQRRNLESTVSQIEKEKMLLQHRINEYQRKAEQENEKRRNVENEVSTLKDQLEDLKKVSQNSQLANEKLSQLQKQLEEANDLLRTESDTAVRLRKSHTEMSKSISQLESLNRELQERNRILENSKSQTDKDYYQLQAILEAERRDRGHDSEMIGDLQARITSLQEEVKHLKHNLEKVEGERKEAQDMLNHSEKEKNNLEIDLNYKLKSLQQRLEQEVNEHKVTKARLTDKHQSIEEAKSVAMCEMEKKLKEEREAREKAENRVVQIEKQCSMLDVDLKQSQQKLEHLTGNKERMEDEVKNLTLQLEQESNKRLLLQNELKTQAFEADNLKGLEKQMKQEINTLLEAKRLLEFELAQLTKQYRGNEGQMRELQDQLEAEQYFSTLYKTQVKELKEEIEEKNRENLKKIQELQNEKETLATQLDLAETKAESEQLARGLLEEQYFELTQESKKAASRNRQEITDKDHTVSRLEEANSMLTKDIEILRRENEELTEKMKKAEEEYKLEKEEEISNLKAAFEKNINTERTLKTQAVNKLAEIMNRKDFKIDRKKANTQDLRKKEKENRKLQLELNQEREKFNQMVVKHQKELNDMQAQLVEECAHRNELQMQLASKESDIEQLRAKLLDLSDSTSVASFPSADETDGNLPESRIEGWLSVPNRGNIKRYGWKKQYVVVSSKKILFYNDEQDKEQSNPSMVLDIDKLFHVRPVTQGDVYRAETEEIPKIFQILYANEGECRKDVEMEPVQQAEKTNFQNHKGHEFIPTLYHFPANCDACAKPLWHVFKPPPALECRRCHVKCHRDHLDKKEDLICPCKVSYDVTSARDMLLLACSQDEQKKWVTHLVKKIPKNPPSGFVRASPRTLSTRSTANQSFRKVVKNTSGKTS
IKKβ, sequence (O14920 whole entry, species assumed): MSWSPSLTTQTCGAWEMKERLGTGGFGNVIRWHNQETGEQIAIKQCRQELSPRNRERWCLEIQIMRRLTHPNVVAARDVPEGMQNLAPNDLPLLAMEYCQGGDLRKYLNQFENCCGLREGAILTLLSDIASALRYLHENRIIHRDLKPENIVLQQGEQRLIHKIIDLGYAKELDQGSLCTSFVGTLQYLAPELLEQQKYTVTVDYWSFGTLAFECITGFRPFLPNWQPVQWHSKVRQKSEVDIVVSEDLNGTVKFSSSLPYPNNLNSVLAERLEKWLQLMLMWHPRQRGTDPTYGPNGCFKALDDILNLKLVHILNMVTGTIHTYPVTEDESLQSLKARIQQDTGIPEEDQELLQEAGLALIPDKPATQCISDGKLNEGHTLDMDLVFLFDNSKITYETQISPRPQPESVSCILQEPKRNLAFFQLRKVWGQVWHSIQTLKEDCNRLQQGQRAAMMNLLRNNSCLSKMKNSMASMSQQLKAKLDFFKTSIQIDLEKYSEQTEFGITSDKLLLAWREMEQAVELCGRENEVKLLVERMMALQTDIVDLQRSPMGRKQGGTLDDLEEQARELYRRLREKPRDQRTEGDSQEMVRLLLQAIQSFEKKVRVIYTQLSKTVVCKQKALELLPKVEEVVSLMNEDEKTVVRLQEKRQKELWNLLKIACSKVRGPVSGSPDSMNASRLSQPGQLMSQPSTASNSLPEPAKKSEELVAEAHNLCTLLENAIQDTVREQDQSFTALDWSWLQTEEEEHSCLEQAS
ROCK2 enzyme, sequence (O75116 whole entry, species assumed): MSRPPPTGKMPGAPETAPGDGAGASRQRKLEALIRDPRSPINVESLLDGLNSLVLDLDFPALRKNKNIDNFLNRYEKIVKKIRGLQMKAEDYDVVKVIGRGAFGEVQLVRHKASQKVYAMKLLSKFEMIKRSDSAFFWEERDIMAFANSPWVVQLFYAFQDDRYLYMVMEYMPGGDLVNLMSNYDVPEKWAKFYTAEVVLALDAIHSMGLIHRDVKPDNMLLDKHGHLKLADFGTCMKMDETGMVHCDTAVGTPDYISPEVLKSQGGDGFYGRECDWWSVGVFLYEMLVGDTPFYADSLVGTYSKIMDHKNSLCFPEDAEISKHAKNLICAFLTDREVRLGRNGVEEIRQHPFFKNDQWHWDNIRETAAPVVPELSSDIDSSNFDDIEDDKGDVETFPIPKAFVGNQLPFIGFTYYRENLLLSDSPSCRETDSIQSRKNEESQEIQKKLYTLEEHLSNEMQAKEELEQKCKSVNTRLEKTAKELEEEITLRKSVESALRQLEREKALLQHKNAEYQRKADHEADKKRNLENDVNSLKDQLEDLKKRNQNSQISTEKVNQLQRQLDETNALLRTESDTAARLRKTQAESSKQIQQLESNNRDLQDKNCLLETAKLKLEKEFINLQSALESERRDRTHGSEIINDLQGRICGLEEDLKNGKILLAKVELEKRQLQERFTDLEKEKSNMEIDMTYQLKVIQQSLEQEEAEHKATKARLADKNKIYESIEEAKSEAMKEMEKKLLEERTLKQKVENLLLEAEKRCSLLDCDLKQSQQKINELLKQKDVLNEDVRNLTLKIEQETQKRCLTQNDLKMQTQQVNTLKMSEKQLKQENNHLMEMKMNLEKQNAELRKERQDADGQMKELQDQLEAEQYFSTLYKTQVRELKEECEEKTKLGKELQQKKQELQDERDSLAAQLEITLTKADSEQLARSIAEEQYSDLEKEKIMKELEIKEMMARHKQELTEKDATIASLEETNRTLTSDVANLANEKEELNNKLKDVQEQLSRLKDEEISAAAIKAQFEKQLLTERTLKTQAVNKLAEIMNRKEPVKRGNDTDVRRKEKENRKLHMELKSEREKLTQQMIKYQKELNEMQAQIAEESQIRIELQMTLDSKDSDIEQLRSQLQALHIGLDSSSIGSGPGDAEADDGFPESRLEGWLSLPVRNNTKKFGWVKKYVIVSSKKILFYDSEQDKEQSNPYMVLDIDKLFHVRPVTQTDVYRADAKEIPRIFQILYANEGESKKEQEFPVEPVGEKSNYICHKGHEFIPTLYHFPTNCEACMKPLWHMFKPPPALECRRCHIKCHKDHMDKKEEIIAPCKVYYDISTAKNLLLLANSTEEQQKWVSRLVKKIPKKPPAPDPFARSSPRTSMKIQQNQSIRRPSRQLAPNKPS

| IC50 [1] [nM] | IC50 [2] [nM] | IC50 [3] [nM] | IC50 [4] [nM] | Ki [2, 8] [µM] | Ki [3, 8] [µM] | Ki ([4]; Table 2) [µM] | IC50 [5] [µM] | IC50 [6] [nM] | Structure (SMILES) | IC50 [7] [nM] |
| --- | --- | --- | --- | --- | --- | --- | --- | --- | --- | --- |
| 18 | 15 | 179 | 825 | – | – | – | – | – | Cc1cncc2ccc(NC(=O)[C@@H]3C[C@H]3c3ccc(S(=O)(=O)NC4CCCNC4)cc3)cc12 (stereo partly shown) [Compound 13] | – |
| 156 | 56 | 4.8 | 88 | – | – | – | – | – | O=C(Nc1ccc2cncc(Cl)c2c1)[C@@H]1C[C@H]1c1ccc(S(=O)(=O)Nc2ccc(F)cn2)cc1 [Compound 15] | – |
| 1090 | 880 | 5.8 | 3.6 | – | – | – | – | – | CCc1cncc2ccc(NC(=O)[C@@H]3C[C@H]3c3ccc(S(=O)(=O)Nc4ncccn4)cc3)cc12 [Compound 7] | – |
| 30 | 20 | 2.4 | 6.9 | – | – | – | – | – | N#Cc1cncc2ccc(NC(=O)[C@@H]3CC3c3ccc(S(=O)(=O)Nc4ccccn4)cc3)cc12 (stereo partly shown) [Compound 20] | – |
| – | – | – | – | 0.001 | 0.211 | 1.19 | 0.012 | – | CN(C)Cc1ccc(NC(=O)c2cccc([C@@H]3C[C@H]3C(=O)Nc3ccc4cncc(Cl)c4c3)c2)nc1 [Compound 36] | – |
| 43 | 13.8 | 350 | > 5000 | – | – | – | – | – | O=C(Nc1ccc2cnccc2c1F)[C@@H]1C[C@H]1c1ccc(S(=O)(=O)Nc2cccnc2)cc1 [Compound 29] | – |
| 16 | 4.9 | 148 | 1130 | – | – | – | – | – | Cc1cncc2ccc(NC(=O)[C@@H]3C[C@H]3c3ccc(S(=O)(=O)Nc4ncc(C5CCNCC5)cn4)cc3)cc12 [Compound 1] | – |
| 122 | 108 | 9 | 16 | – | – | – | – | – | O=C(Nc1ccc2cncc(C(F)(F)F)c2c1)[C@@H]1C[C@H]1c1ccc(S(=O)(=O)Nc2ccccn2)cc1 [Compound 14] | – |
| 160 | 67 | 18 | 381 | – | – | – | – | 210 | O=C(Nc1ccc2cncc(Cl)c2c1)[C@@H]1CC1c1ccc(S(=O)(=O)Nc2cccnc2)cc1 (stereo partly shown) [Compound 28] | 57 |
| – | – | – | – | – | – | – | – | 34 | Cc1cncc2ccc(NC(=O)[C@@H]3C[C@H]3c3ccc(S(=O)(=O)Nc4cnccn4)cc3)cc12 [Compound 10] | – |
| 128 | 68 | – | 4.1 | – | – | – | – | – | O=C(Nc1ccc2cncc(Cl)c2c1)[C@@H]1C[C@H]1c1ccc(S(=O)(=O)Nc2ncccn2)cc1 [Compound 6] | – |
| 74 | 25 | 2.9 | 70 | – | – | – | – | 12 | O=C(Nc1ccc2cncc(Cl)c2c1)[C@@H]1CC1c1ccc(S(=O)(=O)Nc2ccc(F)cn2)cc1 (mixture of isomers) [Compound 16b] | – |
| 121 | 93 | 3.9 | 7.3 | – | – | – | – | – | Cc1cncc2ccc(NC(=O)[C@@H]3CC3c3ccc(S(=O)(=O)Nc4ncc(F)cn4)cc3)cc12 (stereo partly shown) [Compound 8] | – |
| 20 | 12.3 | 3.4 | 5 | – | – | – | – | – | Cc1cncc2ccc(NC(=O)[C@@H]3C[C@H]3c3ccc(S(=O)(=O)Nc4nccs4)cc3)cc12 [Compound 32] | – |
| – | 44 | 19 | – | – | – | – | – | 98 | Cc1cncc2ccc(NC(=O)[C@@H]3C[C@H]3c3ccc(S(=O)(=O)Nc4cccnc4)cc3)cc12 [Compound 27] | – |
| – | – | – | 159 | – | – | – | – | – | Cc1cncc2ccc(NC(=O)[C@@H]3CC3c3ccc(S(=O)(=O)Nc4cccnc4)cc3)cc12 (stereo partly shown) [Compound 27] | – |
| 156 | 56 | 4.8 | 88 | – | – | – | – | 7 | O=C(Nc1ccc2cncc(Cl)c2c1)[C@@H]1CC1c1ccc(S(=O)(=O)Nc2ccc(F)cn2)cc1 (mixture of isomers) [Compound 16a] | – |
| – | – | – | – | – | – | – | 0.65 | – | O=C(Nc1cccnn1)c1ccc(C2C[C@H]2C(=O)Nc2ccc3cnccc3c2)cc1 (stereo partly shown) [Compound 175] | – |

| Structure (SMILES) | IC50 [1] [nM] | IC50 [2] [nM] | IC50 [3] [nM] | IC50 [4] [nM] | Ki [2, 8] [µM] | Ki [3, 8] [µM] | Ki ([4]; Table 2) [µM] | IC50 [5] [µM] | IC50 [6] [nM] | IC50 [7] [nM] |
| --- | --- | --- | --- | --- | --- | --- | --- | --- | --- | --- |
| O=C(Nc1ccc2cnccc2c1)[C@@H]1CC1c1cc(F)ccc1S(=O)(=O)Nc1ccccn1 (stereo partly shown) [Compound 19] | 7400 | – | 6750 | – | – | – | – | – | – | – |
| O=C(Nc1ccc2cnccc2c1)[C@@H]1CC1c1ccc(S(=O)(=O)Nc2ccccn2)c(F)c1 (stereo partly shown) [Compound 18] | 6.4 | 4 | 19.5 | 17.5 | – | – | – | – | – | – |
| O=C(Nc1ccc2cncc(C(F)(F)F)c2c1)[C@@H]1CC1c1ccc(S(=O)(=O)Nc2ncccn2)cc1 (stereo partly shown) [Compound 9] | 1570 | 1160 | 8.2 | 14 | – | – | – | – | – | – |
| Cc1cncc2ccc(NC(=O)[C@@H]3C[C@H]3c3ccc(S(=O)(=O)Nc4cncc(C5=CCNCC5)n4)cc3)cc12 [Compound 11] | 153 | 15 | 135 | 765 | – | – | – | – | – | – |
| CCc1cncc2ccc(NC(=O)[C@@H]3CC3c3ccc(S(=O)(=O)Nc4ccccn4)cc3)cc12 (stereo partly shown) [Compound 17] | 44 | 45 | 4.2 | – | – | – | – | – | – | – |
| Cc1cncc2ccc(NC(=O)[C@@H]3C[C@H]3c3ccc(S(=O)(=O)NC4CCNC4)cc3)cc12 (stereo partly shown) [Compound 12] | 21 | 21 | 175 | 759 | – | – | – | – | – | – |
| Cc1cncc2ccc(NC(=O)[C@@H]3CC3c3ccc(S(=O)(=O)Nc4cnccn4)cc3)cc12 (stereo partly shown) [Compound 10] | 220 | 74 | 14 | 105 | – | – | – | – | – | > 1000 |
